Experimental data taken from patent US11964929B2, “Application of glutamine derivative in preparation of animal feed additive” (WISORIG TE[…]. LIMITED, priority 2018, dated 2024).

Columns and labels:
[1] = test system: Duroc×Landrace×Yorkshire cross-bred bacon-type pigs; experiment: Effect of the glutamine derivatives on the production performance of hogs (piglets), 28-day feeding; format: in vivo; conditions: 65-day-old pigs, basal ration + 800 ppm, 28 days; for FCR (feed conversion ratio): ADFI/ADG
Description: 480 65-day-old Duroc×Landrace×Yorkshire cross-bred bacon-type pigs with similar body weight, were randomly divided into 16 groups, with 3 replications per group and 10 pigs (half of male and female) per replication. The pig pen and tools were sterilized before the experiment. […] The experiment lasted for 28 days.

yellow broilers = conditions: 1-day-old yellow broilers, basal ration + 750 ppm, 20 days; for FCR (feed conversion ratio): ADFI/ADG
Description: The experiment was conducted with single-factor randomized design. 720 1-day-old yellow broilers with a similar average body weight of 50 g, was randomly divided into 16 groups, each group consisting of 3 replicates and equal numbers of males and females, and each replicate consisting of 15 yellow broilers. The chicken house and tools were sterilized before the experiment. During the experiment, the broilers were kept in separate regions in the same chicken house under the same feeding and management conditions. Basal ration mainly consisted of corn and soybean meal. During the entire process, each treatment group was not given other antioxidants or growth promoters. […] The experiment lasted for 20 days. The broilers were given ad libitum access to food and water, and feeds were provided twice every day. At the day when the broilers were 21-day old (withdrawing feed for 12 hours, without withdrawing water), taking each replicate as one unit, body weights of the broilers were measured for calculating average daily feed intake (ADFI, g/d per broiler), average daily weigh gain (ADG, g/d per broiler), and feed conversion ratio (FCR). Feed conversion ratio (FCR)=Average daily feed intake/Average daily weight gain

Grass carps = conditions: basal ration + 500 ppm, 8 weeks; for Feed coefficient: 580/(final−initial weight); for Weight gain rate: (final−initial)/initial×100; for Average final weight: restricted feeding
Description: Grass carps were used in this experiment, which is conducted in an aquaculture region in the Guangzhou Insighter experiment yard. Healthy grass carps with the same size were reared in large netcages for 4 weeks before the experiment. The grass carps were kept in small floating netcages during the experiment. The small netcages and netcages for acclimatization were both placed in a 3500 m^2 pond in the experiment yard. […] In the experiment, 520 grass carps, which had been starved for 1 day, were randomly divided into 13 groups, each group consisting of 4 replicates, and each replicate consisting of 10 grass carps. The grass carps were weighed, taking each replicate as a whole. Then they were randomly released to 52 netcages in which they were fed with different feeds. […] Feed restriction had been adopted during the experiment, and the feeding amount was adjusted once a week. The treatment and control groups were fed twice (7:30 and 15:30) every day, with their feeding levels (based on initial body weights) being identical to be a total amount of 580 g. The experiment lasted for 8 weeks.
Calculation: Weight gain rate (%)=(Average final weight−Average initial weight)/Average initial weight×100 Feed coefficient=580/(Average final weight−Average initial weight)

SMILES	ADFI (average daily feed intake) [1] [g/d per piglet]	ADG (average daily weight gain) [1] [g/d per piglet]	FCR (feed conversion ratio) [1]	ADFI (average daily feed intake) (yellow broilers) [g/d per broiler]	ADG (average daily weight gain) (yellow broilers) [g/d per broiler]	FCR (feed conversion ratio) (yellow broilers)	Feed coefficient (Grass carps)	Weight gain rate (Grass carps) [%]	Average final weight (Grass carps) [g]
CCNC(=O)CCC(NC(=O)c1ccc(C)cc1)C(=O)O (stereo not drawn) [Compound 11]	1592	634	2.512	30.8	13.8	2.24	1.80	70.73	681
CCCCNC(=O)CCC(NC(=O)c1ccccc1)C(=O)O (stereo not drawn) [Compound 2]	1648	651	2.531	31.5	14.1	2.23	1.78	70.47	690
CCNC(=O)CCC(NC(=O)c1ccc(O)cc1)C(=O)O (stereo not drawn) [Compound 12]	1599	633	2.528	31.6	14.0	2.26	1.79	69.56	692
CCNC(=O)CCC(NC(=O)c1ccccc1)C(=O)[O-].CCNC(=O)CCC(NC(=O)c1ccccc1)C(=O)[O-].[Zn+2] (stereo not drawn) [Compound 7]	1674	672	2.491	31.7	14.5	2.18			
CCNC(=O)CCC(NC(=O)c1ccccc1)C(=O)[O-].CCNC(=O)CCC(NC(=O)c1ccccc1)C(=O)[O-].[Cu+2] (stereo not drawn) [Compound 8]	1670	671	2.488	30.6	14.2	2.16			
CCCC(=O)NC(CCC(=O)NCC)C(=O)O (stereo not drawn) [Compound 13]	1609	627	2.566	31.3	13.7	2.28	1.83	70.42	687
CCNC(=O)CCC(NC(=O)c1ccccc1)C(=O)[O-].CCNC(=O)CCC(NC(=O)c1ccccc1)C(=O)[O-].[Ca+2] (stereo not drawn) [Compound 9]	1636	652	2.511	32.5	14.8	2.20			
CCCCCCCCCC(=O)NC(CCC(=O)NCC)C(=O)O (stereo not drawn) [Compound 14]	1582	621	2.548	31.8	14.0	2.27	1.81	70.70	678
CCNC(=O)CCC(NC(=O)c1ccccc1)C(=O)O (stereo not drawn) [Compound 1]	1657	661	2.506	32.8	14.8	2.22	1.79	72.41	678
CCNC(=O)CCC(NC(=O)c1ccccc1)C(=O)OCC (stereo not drawn) [Compound 6]	1615	646	2.499	31.2	14.2	2.20	1.77	72.84	681
CCCCCCCCCCCCCC(=O)NC(CCC(=O)NCC)C(=O)O (stereo not drawn) [Compound 15]	1670	650	2.571	32.4	14.6	2.22	1.80	70.73	681
O=C(NC(CCC(=O)N1CCCCC1)C(=O)O)c1ccccc1 (stereo not drawn) [Compound 5]	1633	651	2.510	30.9	13.7	2.26	1.80	71.27	678
CCNC(=O)CCC(NC(=O)c1ccc(Cl)cc1)C(=O)O (stereo not drawn) [Compound 10]	1607	657	2.508	32.2	14.5	2.22	1.81	72.34	669
